Measured values taken from patent publication US20230310395A1, “TOPICAL ROFLUMILAST COMPOSITIONS AND USES THEREOF” (Sol-Gel Technologies Ltd., priority 2020, published 2023).

Experiments:
[1] = system: psoriasis-induced xenotransplants (human skin grafted on beige-SCID mice, injected with PBMC's from psoriatic patients); experiment: Efficacy study in psoriasis-induced human skin xenotransplants on beige-SCID mice, histological evaluation; assay type: in vivo; conditions: topical treatment for 14 days (Day 42-56), histology at Day 56
From the text: The objective of this study was to determine the efficacy of Roflumilast as provided herein (at Examples 4 and 5) compared to the vehicle and Dexamethasone as shown at the Table 3. The evaluation was based on histology analysis following application of the respective test formulations.
The efficacy study has been conducted on female mice. The total duration of the experiment was 8 weeks, upon receiving of the human skin. Normal skin from healthy volunteers were obtained for grafting. Healthy human abdominal skin pieces with a width of 0.4 mm and surface area of 1.5×1.5 cm were provided. The skin sample was preserved in isotonic saline solution and transplanted within 6-12 hours after skin donation. In addition, blood samples were collected from psoriatic patients having classic plaque psoriasis and not undergoing any treatment. 20 mL blood samples were taken from both males and females psoriatic patients (from psoriatic patients having classic plaque psoriasis and not undergoing any treatment), and peripheral blood mononuclear cells (PBMC) were separated immediately after blood withdrawal.
Mice: Beige-severe combined immunodeficient mice C.B-17/IcrHsdscid-bg (beige-SCID) mice (weight ˜25 g) were included in this study. Mice were monitored twice a week for vital signs such as weight, food intake, coat, eyes, anal genital areas, discharge/soiling, behavior and criteria related to skin transplantation. Normal healthy human donor skin were transplanted onto the beige-SCID mice as previously described (See Keren A. et al., Novel nanosome delivery system combined with siRNA targeting the antimicrobial gene DFB4: a new approach for psoriasis management? Exp Dermatol. 2014; 23:464-465; Bracke S. et al., Targeted silencing of DEFB4 in a bioengineered skin-humanized mouse model for psoriasis: development of siRNA SECosome-based novel therapies. Exp Dermatol. 2014 ;23:199-201; Zaretsky M. et al., Directed evolution of a soluble human IL-17A receptor for the inhibition of psoriasis plaque formation in a mouse model. Chem Biol. 2013 21; 20:202-2; Gilhar A. et al., The beneficial effect of blocking Kv1.3 in the psoriasiform SCID mouse model. J Invest Dermatol. 2011;131:118 124; Keren A. et al., Innate lymphoid cells 3 induce psoriasis in xenotransplanted healthy human skin. J Allergy Clin Immunol. 2018;142:305-308.e6.).
British Journal of Pharmacology 2010; 159:842-855).
Four weeks following the engraftment, each mouse was injected (intradermally) with 1×10^7 IL-2 enriched allogeneic PBMC's from psoriatic patients (1×10^7 cells injected/mouse). Cells from different psoriasis patients were equally distributed between treatment groups. Each patient was represented in each treatment group.
Fourteen days following cells injections, the mice were divided into treatment groups (Table 4, see below) and treated according to the timeline indicated below (see Scheme 1). Each transplant was equally topically treated (50 μg) by using a sterile spatula.
Dexamethasone (D2915, Sigma): was freshly prepared for each administration by dilution in saline to final concentration (50 mg/ml). Dexamethasone serves as a positive control and was administered topically twice daily for 14 days following cells injections (at Day 42 following human skin transplantation) until the end of the study (Day 56).
The vehicle was administered topically (50 μg) once daily for 14 days as well.
On Day 56, the entire skin graft was excised and placed in 10% formaldehyde in saline overnight. Then, the specimens were placed in 70% ethanol and embedded and stained according to the standard Hematoxylin/Eosin protocol.
Skin graft histological assessment was performed (according to the psoriatic criteria including epidermal thickness) using light microscopy, and two observers blindly performed the evaluations. Epidermal thickness was determined using an ocular micrometer at a minimum of 50 points along the epidermis selected to represent points of maximal and minimal thickness. […]

[2] = according to the roflumilast DrugBank monograph; cited from earlier work
[3] = number of grafts/mice out of 10

With `C[C@@H]1C[C@H]2[C@@H]3CCC4=CC(=O)C=C[C@]4(C)[C@@]3(F)[C@@H](O)C[C@]2(C)[C@@]1(O)C(=O)CO` [Dexamethasone] the “Complete Recovery” value [1, 3] was 9/10, the “Partial Recovery” value [1, 3] was 1/10 and the “Psoriatic Features” value [1, 3] was 0/10. The “Complete Recovery (%)” value ([1]; percent of grafts/mice) was “(90%)”, the “Partial Recovery (%)” value ([1]; percent of grafts/mice) was “(10%)” and the “Psoriatic Features (%)” value ([1]; percent of grafts/mice) was “(0%)”.
For `O=C(Nc1c(Cl)cncc1Cl)c1ccc(OC(F)F)c(OCC2CC2)c1` [Roflumilast, 3-(cyclopropylmethoxy)-n-(3,5-dichloropyridin-4-yl)-4-(difluoromethoxy)-benzamide], the calculated water solubility [2] is listed as 6.2 µg/mL.
